# According to ChEMBL document CHEMBL1124960, “Histamine H3 ligands: just pharmacological tools or potential therapeutic agents?” (J Med Chem, 1990):
# Columns and labels:
# [1] = target: Histamine H2 receptor (Cavia porcellus) (UniProt P47747); experiment: Evaluated for activity at Histamine H2 receptor in guinea pig ileum; assay type: tissue-based
# [2] = target: Histamine H1 receptor (Cavia porcellus) (UniProt P31389); experiment: Evaluated for activity at Histamine H1 receptor in guinea pig ileum; assay type: tissue-based
# Rattus norvegicus [3] = organism: Rattus norvegicus; experiment: Relative inhibition of [3H]histamine release from pre-loaded slices of rat cerebral cortex; assay type: functional
# [4] = target: Histamine H2 receptor (Cavia porcellus) (UniProt P47747); details: Cardiac atrium
# [5] = target: Histamine H1 receptor (Cavia porcellus) (UniProt P31389); details: Ileum
# [6] = target: Histamine H2 receptor (Cavia porcellus) (UniProt P47747); experiment: Evaluated for antagonist activity against histamine H2 receptor and represented as KB.; assay type: functional
# [7] = target: Histamine H3 receptor (Rattus norvegicus) (UniProt Q9QYN8); experiment: Evaluated for antagonist activity against histamine H3 receptor and represented as KB.; assay type: functional
# Target sequence in this assay (Q9QYN8 whole entry): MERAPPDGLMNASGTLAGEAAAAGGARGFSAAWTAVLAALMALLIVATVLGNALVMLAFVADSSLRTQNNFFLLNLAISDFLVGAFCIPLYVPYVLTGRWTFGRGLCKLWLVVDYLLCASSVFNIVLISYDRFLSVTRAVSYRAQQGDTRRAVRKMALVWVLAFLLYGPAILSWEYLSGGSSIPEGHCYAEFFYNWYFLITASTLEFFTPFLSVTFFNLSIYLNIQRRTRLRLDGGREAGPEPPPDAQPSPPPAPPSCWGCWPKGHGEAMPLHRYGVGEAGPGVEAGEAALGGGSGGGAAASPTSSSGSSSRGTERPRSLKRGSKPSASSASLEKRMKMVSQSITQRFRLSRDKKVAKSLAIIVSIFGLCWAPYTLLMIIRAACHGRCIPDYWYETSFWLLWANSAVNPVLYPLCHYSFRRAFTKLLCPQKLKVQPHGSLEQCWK
# Rattus norvegicus [8] = organism: Rattus norvegicus; experiment: Histamine level after treatment was determined in colon.; assay type: functional
# Rattus norvegicus [9] = organism: Rattus norvegicus; experiment: Histamine level after treatment was determined in adbominal skin.; assay type: functional
# Rattus norvegicus [10] = organism: Rattus norvegicus; experiment: Histamine level after treatment was determined in cerebral cortex; assay type: functional
# Rattus norvegicus [11] = organism: Rattus norvegicus; experiment: Histamine level after treatment was determined in hypothalamus.; assay type: functional
# Rattus norvegicus [12] = organism: Rattus norvegicus; experiment: Histamine level after treatment was determined in spleen; assay type: functional
# Histamine H3 receptor [13] = target: T1, Histamine H3 receptor (Rattus norvegicus, UniProt Q9QYN8); experiment: Evaluated for antagonist activity against histamine H3 receptor and is represented as -log Ki.; assay type: functional
# Histamine H3 receptor [14] = target: T1, Histamine H3 receptor; experiment: Evaluated for antagonist activity against Histamine H3 receptor and represented as KB.; assay type: functional
# Rattus norvegicus [15] = organism: Rattus norvegicus; experiment: Evaluated for inhibition of [3H]histamine release from preloaded slices and is represented as pD2; assay type: functional
# [16] = target: Histamine H1 receptor (Cavia porcellus) (UniProt P31389); experiment: Evaluated for antagonist activity against histamine H1 receptor and represented as KB; assay type: functional
# [17] = target: Histamine H3 receptor (Rattus norvegicus) (UniProt Q9QYN8); experiment: Evaluated for antagonist activity against histamine H3 receptor and represented as KB; assay type: functional
# Target sequence in this assay (Q9QYN8 whole entry): as above
# [18] = target: Histamine H1 receptor (Cavia porcellus) (UniProt P31389); experiment: Evaluated for agonistic activity at histamine H1 receptor of guinea pig ileum and is represented as potency.; assay type: functional, tissue-based
# [19] = target: Histamine H2 receptor (Cavia porcellus) (UniProt P47747); experiment: Evaluated for agonistic activity at histamine H2 receptor of guinea pig atrium and is represented as intrinsic activity; assay type: functional, tissue-based; details: Cardiac atrium
# [20] = target: Histamine H1 receptor (Cavia porcellus) (UniProt P31389); experiment: Evaluated for agonistic activity at histamine H1 receptor of guinea pig ileum and is represented as intrinsic activity; assay type: functional, tissue-based
# [21] = target: Histamine H2 receptor (Cavia porcellus) (UniProt P47747); experiment: Evaluated for agonistic activity at histamine H2 receptor of guinea pig atrium and is represented as potency.; assay type: functional, tissue-based; details: Cardiac atrium
# Histamine H3 receptor [22] = target: T1, Histamine H3 receptor; experiment: Evaluated for antagonistic activity at histamine H3 receptor in rat cerebral cortex and is represented as Ki.; assay type: functional, tissue-based
# Histamine H3 receptor [23] = target: T1, Histamine H3 receptor; experiment: Evaluated for antagonistic activity at histamine H3 receptor in rat cerebral cortex and is represented as Ki; assay type: functional, tissue-based
# Histamine H2 receptor = Histamine H2 receptor (Cavia porcellus, UniProt P47747); experiment: Evaluated for activity against Histamine H2 receptor in guinea pig atrium and represented pA2; assay type: tissue-based, Cardiac atrium; details: read-out: pA2 (converted)
# [24] = target: Histamine H2 receptor (Cavia porcellus) (UniProt P47747); experiment: Evaluated for activity against Histamine H2 receptor in guinea pig atrium and represented as alpha; assay type: tissue-based; details: Cardiac atrium
# [25] = target: Histamine H3 receptor (Rattus norvegicus) (UniProt Q9QYN8); experiment: Evaluated for activity against H3 receptor and represented as %recovery histamine release at a concentration 5 x 10 E -6M.
# Target sequence in this assay (Q9QYN8 whole entry, looked up): as the sequence (Q9QYN8 whole entry) above
# T1 sequence (Q9QYN8 whole entry): as above
# Chain of Histamine H2 receptor (Cavia porcellus) (P47747 whole entry): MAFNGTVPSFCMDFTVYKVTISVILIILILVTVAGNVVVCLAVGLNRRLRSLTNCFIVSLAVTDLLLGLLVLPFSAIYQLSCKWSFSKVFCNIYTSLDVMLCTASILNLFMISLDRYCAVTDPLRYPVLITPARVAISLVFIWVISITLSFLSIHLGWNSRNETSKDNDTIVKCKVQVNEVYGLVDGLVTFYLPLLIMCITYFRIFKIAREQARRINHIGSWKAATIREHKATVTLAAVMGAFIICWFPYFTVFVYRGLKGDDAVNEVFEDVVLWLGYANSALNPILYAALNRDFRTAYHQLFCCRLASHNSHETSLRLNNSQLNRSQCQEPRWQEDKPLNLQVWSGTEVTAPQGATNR
# Chain of Histamine H1 receptor (Cavia porcellus) (P31389 whole entry): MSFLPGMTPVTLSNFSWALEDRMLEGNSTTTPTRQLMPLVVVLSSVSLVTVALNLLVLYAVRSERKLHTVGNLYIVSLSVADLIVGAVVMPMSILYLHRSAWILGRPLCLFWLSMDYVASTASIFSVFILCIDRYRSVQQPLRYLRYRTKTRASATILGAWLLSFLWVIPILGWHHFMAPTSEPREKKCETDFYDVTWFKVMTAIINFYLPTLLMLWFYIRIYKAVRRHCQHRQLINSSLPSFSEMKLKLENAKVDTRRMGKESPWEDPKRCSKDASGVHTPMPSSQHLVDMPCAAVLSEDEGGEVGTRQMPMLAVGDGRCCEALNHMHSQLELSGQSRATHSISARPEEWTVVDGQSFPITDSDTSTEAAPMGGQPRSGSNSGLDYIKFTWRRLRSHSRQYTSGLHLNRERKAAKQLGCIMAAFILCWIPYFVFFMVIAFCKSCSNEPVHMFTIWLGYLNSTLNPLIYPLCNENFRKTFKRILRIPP
# Chain of Histamine H2 receptor (P47747 whole entry): as the sequence (P47747 whole entry) above
smiles,measurement,setting,value
Cc1ncc(CCN)[nH]1 [2-METHYLHISTAMINE],Activity,[1],4.4
same,Activity,[2],16.5
same,Ratio_EC50,Rattus norvegicus [3],<0.008
NCCc1c[nH]cn1 [HISTAMINE],Activity,[1],100
same,Activity,[2],100
same,Ratio_EC50,Rattus norvegicus [3],100
same,pD2,[4],5.95
same,Potency,[5],100
C/N=C(/NC#N)NCCSCc1csc(NC(=N)N)n1,KB,[6],15 nM
same,KB,[7],> 12 µM
C[C@@H](N)Cc1c[nH]cn1,Activity,[1],1.02
same,Activity,[2],0.49
same,Histamine level,Rattus norvegicus [8],81
same,Histamine level,Rattus norvegicus [9],65
same,Histamine level,Rattus norvegicus [10],68
same,Histamine level,Rattus norvegicus [11],85
same,Histamine level,Rattus norvegicus [12],69
same,Ratio_EC50,Rattus norvegicus [3],1550
Cc1nc[nH]c1CCN [4-METHYLHISTAMINE],Activity,[1],43
same,Activity,[2],0.23
same,Ratio_EC50,Rattus norvegicus [3],<0.008
Cn1cnc(CCN)c1 [N-METHYLHISTAMINE],Activity,[1],< 0.1
same,Activity,[2],< 0.01
same,Ratio_EC50,Rattus norvegicus [3],<4
O=C(CCCc1cnc[nH]1)NCCc1cnc[nH]1,Ki,Histamine H3 receptor [13],1000 nM
O=C(CCc1ccccc1)NCCc1cnc[nH]1,Ki,Histamine H3 receptor [14],631 nM
CC(C)NCCc1c[nH]cn1,pD2,Rattus norvegicus [15],<5.5
CN(C)CCCSC(=N)N,Activity,[1],71
same,Activity,[2],< 0.0001
same,Ratio_EC50,Rattus norvegicus [3],<0.03
C[C@H](N)Cc1c[nH]cn1,Activity,[1],1.74
same,Activity,[2],0.49
same,Ratio_EC50,Rattus norvegicus [3],13
COc1ccc(CN(CCN(C)C)c2ccccn2)cc1,KB,[16],440 pM
same,KB,[17],> 58 nM
Cc1nc[nH]c1CSCCNC(=N)N[C@H](C)Cc1c[nH]cn1 [SOPROMIDINE],Potency,[18],1.7
same,Activity,[19],1
same,Activity,[20],0.2
same,pD2,[21],6.92
same,Ki,Histamine H3 receptor [22],60 nM
Cc1nc[nH]c1CSCCNC(N)=N[C@@H](C)Cc1cnc[nH]1,Ki,Histamine H3 receptor [23],40 nM
CSCC/N=C(\NC#N)NCCCc1c[nH]cn1 [VUF-8406],Kb,Histamine H2 receptor,15.8 nM
same,Activity,[24],0
same,Release,[25],100%
O=C(CCC(c1ccccc1)c1ccccc1)NCCc1c[nH]cn1,Ki,Histamine H3 receptor [13],1000 nM
CN/C(=N\CCSCc1nc[nH]c1C)NC#N,KB,[7],33 µM
